{"source": "patent US20260376283A1", "about": "“A METHOD IMPLEMENTING MORPHOLOGICAL CHANGES OF EXTRACELLULAR ORGANELLE VESICLES SO AS TO EXAMINE THE TRANSPORTING ACTIVITY OF MEMBRANE TRANSPORT PROTEINS AND OTHER RELATED METHODS” (PARIS SCIENCES ET LETTRES, priority 2023, published 2026)", "key": {"[1]": {"system": "ion channel TMEM175 localized on lysosomes or endolysosomes vesicles", "conditions": "cited from earlier work"}, "[2]": {"system": "ion channel TMEM175 localized on lysosomes or endolysosomes vesicles", "experiment": "K+ ion channel TMEM175 transporting activity by endolysosome vesicle morphological change (Example 8)", "type": "biochemical", "conditions": "role: substrate, KCl 100 mM inside, 1 mM outside with 200 mM sucrose", "method": "Before starting acquisition, extracellular endolysosome vesicles are charged with K^+ ions thanks to a bath sonicator and an extracellular solution (210 mOsm/L) containing 100 mM of KCl and 10 mM of Hepes, pH 7.2. Then, extracellular endolysosome vesicles are seeded on a glass plate for observation. Before starting acquisition, extravesicular aqueous solution is removed to be changed when starting acquisition.\nOnce the acquisition is started, the extracellular organelle vesicle, held by the micropipette is passed through an extra-vesicular aqueous solution (200 mOsm/L) containing 1 mM of KCl and 200 mM of sucrose. Contacting very small amount of potassium ions with said extracellular organelle vesicle generates a concentration gradient of K^+ between the inside and the outside of the vesicles. […] This innovative process allows to examine the transporting activity of the ion channel TMEM175 localized on lysosomes or endolysosomes vesicles in absence and/or in presence of an antagonist (4-AP) and/or agonist (DCPIB)."}, "[3]": {"system": "giant organelles from the ER", "experiment": "Giant organelle formation after pre-treatment of cells (ER)", "type": "cell-based", "conditions": "pre-treatment between 1 and 90 min before swelling", "from_the_text": "(§1) According to a particular embodiment of the first process, prior to the generation of giant extracellular organelle vesicles, cells may be treated with molecules to prevent protein degradation, modulate biochemical reactions on organelles, etc., so that giant extracellular organelle vesicles can bear specific biochemical properties. The metabolic conditions and the architecture of cells and its organelles can thus be further modified before step v), by chemicals and/or by modifying the expression level of proteins impacting the architecture of cells and/or their organelles and/or the metabolic conditions. […] These manipulations enable controlling the size of the recovered giant extracellular organelle vesicles and their contact: tuning the surface-to-volume ratio, prior to the osmotic swelling, impacting the future recovered giant organelle size, with adapted osmotic swelling. […]"}, "[4]": {"system": "giant extracellular organelles vesicles coming from autophagosomes", "experiment": "Giant organelle formation after pre-treatment of cells (autophagosomes)", "type": "cell-based", "conditions": "added before swelling and extraction", "from_the_text": "as §1"}, "[5]": {"system": "giant extracellular organelles vesicles from endosome, lysosome, autolysosome and multivesicular body", "experiment": "Giant organelle formation after pre-treatment of cells (endosome, lysosome, autolysosome, multivesicular body)", "type": "cell-based", "conditions": "added between 12 to 24 hours before swelling", "from_the_text": "as §1"}, "[6]": {"system": "ion pump SERCA localized on Endoplasmic Reticulum vesicles", "experiment": "Ca2+ pump transporting activity by morphological change (deflation/re-swelling) of ER extracellular organelle vesicles (Example 1)", "type": "biochemical", "conditions": "role: substrate", "method": "An initial HKM buffer was prepared with 50 mM Hepes (known as 2-[4-(2-hydroxyethyl)piperazin-1-yl]ethanesulfonic acid), 120 mM potassium acetate, and 1 mM MgCl2 (in Milli-Q water) at pH 7.4. Said initial HKM buffer has an osmolarity of 280±15 mOsm/L.\nThen, a membrane tension is applied on cells so as to produce extracellular organelle vesicles without lysing them. At that step, the extracellular organelle vesicles are released (or produced) thanks to the lysis and the removal of the plasma membrane. The membrane tension is carried out by micro-manipulation of the cells under confocal microscope thanks to a micropipette aspiration technique. Micropipette radius is around 1 μm. Thanks to a slight aspiration, a bilayer tongue of the plasma membrane was sucked into the micropipette. The aspiration is then increased at an approximate rate of 10 mbar/min, causing a proportional increase in the bilayer surface tension. At a certain applied tension (e.g. surface tension<0.75 mN/m), the plasma membrane ruptured thanks to a pore opening in the plasma membrane and the extracellular organelle vesicles are released (or extracted).\nAfter extraction, one or more extracellular organelle vesicles are isolated using a micropipette. The micropipettes are used to hold a vesicle during the following methods of the present invention. Before the addition of molecules (ions, sugars or drug molecules), an acquisition is launched to observe the initial size of the vesicle.\nOnce the acquisition is started, the extracellular organelle vesicle, held by the micropipette is passed through an aqueous solution containing CaCl2 (60 mOsm/L) and ATP (100 μM). Contacting calcium ions with said extracellular organelle vesicle increases the osmolarity of the extravesicular aqueous medium. […] This innovative process allows to examine the transporting activity of the ion pump SERCA localized on Endoplasmic Reticulum vesicles.\nFIG. 1 A) represents an extracellular organelle vesicle of endoplasmic reticulum (ER) which is maintained thanks to a micropipette into a HKM diluted buffer (20 mOsm/L) as an extravesicular aqueous medium. This extracellular organelle vesicle has been isolated thanks to an ER resident protein (KDEL), over-expressed by COS7 cells, before organelle vesicles extraction.\nAt t=0s, CaCl2 (60 mOsm/L) and ATP (100 μM) were added. At t=20s, the ER extracellular organelle vesicle is deflated: it reached its minimum volume (Vi1) and its associated maximum fluorescence signal (Fl1).\nOnce the acquisition is started, the ER extracellular organelle vesicle, held by the micropipette is passed through an aqueous solution containing sucrose (60 mOsm). […] Sucrose can thus be used as a control or reference in the method of the present invention."}, "SERCA pump [7]": {"system": "SERCA pump", "experiment": "Screening of candidate compounds modulating SERCA activity by ER vesicle re-swelling (Example 4)", "type": "biochemical", "conditions": "role: inhibitor; for re-swelling process in presence of inhibitor: thapsigargin 10 μM in DMSO, 10 min, CaCl2 60 mOsm/L, ATP 1 mM / 100 μM, compared to vesicle not incubated", "method": "Once the ER extracellular organelle vesicles are extracted, thapsigargin (10 μM) in DMSO, is added to the medium. […] After 10 minutes of incubation with thapsigargin, and once the acquisition is started, the extracellular organelle vesicle, held by the micropipette is passed through an aqueous solution containing CaCl2 (60 mOsm/L) and ATP (1 mM).\nFIG. 6 A) represents an ER extracellular organelle vesicle maintained thanks to a micropipette into a HKM diluted buffer (20 mOsm/L). This extracellular organelle vesicle has been isolated thanks to an ER resident protein, over-expressed by COS7 cells, before organelle vesicles extraction. This extracellular organelle vesicle was incubated with thapsigargin at 10 μM during 10 min.\nAt t=0s, CaCl2 (60 mOsm/L) and ATP (100 μM) were added. Dotted line circles all correspond to the size of the extracellular organelle vesicle before the beginning of the process."}, "SERCA pump [8]": {"system": "SERCA pump", "conditions": "role: inhibitor; cited from earlier work"}}, "note": "“Also recorded” adds a separate entry of the source. Read-outs that look alike come from different tables or passages of the source.", "data": [{"smiles": "Nc1ccncc1", "note": "[4-AP]", "values": [{"measurement": "mode of action on TMEM175", "setting": "[1]; role: inhibitor", "result": "antagonist"}]}, {"smiles": "CCCCC1(C2CCCC2)Cc2cc(OCCCC(=O)O)c(Cl)c(Cl)c2C1=O", "note": "(stereo not shown) [DCPIB]", "values": [{"measurement": "mode of action on TMEM175", "setting": "[1]; role: activator", "result": "agonist"}]}, {"smiles": "[Cl-].[K+]", "note": "[KCl]", "values": [{"measurement": "deflation of endolysosome vesicle", "setting": "[2]", "result": "the vesicle deflates in a few seconds"}, {"measurement": "re-swelling process of endolysosome vesicle", "setting": "[2]; following minutes", "result": "a re-swelling process is not observed"}]}, {"smiles": "C/C1=C/C(=O)O[C@@H]2C[C@@H](CC[C@H](C)/C=C\\C=C\\CC1)O[C@@](O)([C@@H]1CSC(=O)N1)C2", "note": "[Latrunculin A]", "values": [{"measurement": "effect on giant organelle formation from the ER", "setting": "[3]", "result": "allows the formation of bigger giant organelles from the ER"}]}, {"smiles": "CO/C1=C\\C(C)=C\\[C@@H](C)[C@@H](O)[C@@H](C)C/C(C)=C/C=C/[C@H](OC)[C@@H]([C@@H](C)[C@@H](O)[C@H](C)C2(O)C[C@@H](O)[C@H](C)[C@@H](C(C)C)O2)OC1=O", "note": "(stereo partly shown) [bafylomicin]", "values": [{"measurement": "effect on giant extracellular organelle vesicles from autophagosomes", "setting": "[4]", "result": "allows to obtain more giant extracellular organelles vesicles coming from autophagosomes"}]}, {"smiles": "COC(=O)Nc1nc2ccc(C(=O)c3cccs3)cc2[nH]1", "note": "[nocodazole]", "values": [{"measurement": "effect on giant organelle formation from the ER", "setting": "[3]", "result": "allows the formation of bigger giant organelles from the ER"}]}, {"smiles": "CO[C@H]1C[C@@H]2CC[C@@H](C)[C@@](O)(O2)C(=O)C(=O)N2CCCC[C@H]2C(=O)O[C@H]([C@H](C)C[C@@H]2CC[C@@H](O)[C@H](OC)C2)CC(=O)[C@H](C)/C=C(\\C)[C@@H](O)[C@@H](OC)C(=O)[C@H](C)C[C@H](C)/C=C/C=C/C=C/1C", "note": "[rapamycin]", "values": [{"measurement": "effect on giant extracellular organelle vesicle formation", "setting": "[5]", "result": "allows to form bigger giant extracellular organelles vesicles"}]}, {"smiles": "OC[C@H]1O[C@@](CO)(O[C@H]2O[C@H](CO)[C@@H](O)[C@H](O)[C@H]2O)[C@@H](O)[C@@H]1O", "note": "[sucrose]", "values": [{"measurement": "re-swelling process of vesicle", "setting": "[6]; 60 mOsm/L, following minutes, CaCl2 with ATP (100 μM), sucrose as control", "result": "no re-swelling is observed; also recorded: no re-swelling process is visible"}, {"measurement": "deflation of vesicle on contacting", "setting": "[6]; CaCl2 60 mOsm/L with ATP (100 μM), or sucrose 60 mOsm without ATP stated, vesicle internal 20 mOsm/L, COS7 ER vesicle", "result": "deflates in a few seconds"}, {"measurement": "transport inside the ER extracellular organelle vesicle", "setting": "[6]; sucrose 60 mOsm, FIG. 2", "result": "not transported inside the ER extracellular organelle vesicle"}]}, {"smiles": "C/C=C(/C)C(=O)O[C@H]1C(C)=C2[C@H]([C@@H]1OC(=O)CCCCCCC)[C@@](C)(OC(C)=O)C[C@H](OC(=O)CCC)[C@@]1(O)[C@H]2OC(=O)[C@@]1(C)O", "note": "[thapsigargin]", "values": [{"measurement": "Vf/Vi1 and Vf/Vi versus reference ratio", "setting": "SERCA pump [7]; reference ratio obtained without thapsigargin", "result": "Vf/Vi1<Vf,ref/Vi1,ref, and Vf/Vi<Vf,ref/Vi,ref"}, {"measurement": "re-swelling process in presence of inhibitor", "setting": "SERCA pump [7]", "result": "the reswelling process is decreased or not present"}, {"measurement": "re-swelling process in presence of inhibitor", "setting": "SERCA pump [7]; listed as thaspigargin", "result": "the re-swelling process is almost off"}, {"measurement": "effect on the transporting activity of SERCA with respect to Ca^2+", "setting": "SERCA pump [7]; thapsigargin 10 μM, FIGS. 1 and 6", "result": "inhibitory effect"}, {"measurement": "known activity on the SERCA pump", "setting": "SERCA pump [8]", "result": "known inhibitor of the SERCA pump"}]}]}
